Counter-ions that a name gives are not always drawn.
Structure (SMILES): Cc1cc2cc(NS(=O)(=O)c3ccc(-c4ccccc4)cc3)ccc2n1CCN(C)C [Example 36e, N-(1-(2-(dimethylamino)ethyl)-2-methyl-1H-indol-5-yl)-4-phenylbenzenesulfonamide]
- melting point: 176 to 177 °C

Structure (SMILES): CN1CCN(Cc2c[nH]c3ccc(NS(=O)(=O)/C=C/c4ccccc4)cc23)CC1
- melting point: 203 °C (dec.)

Structure (SMILES): CCCCN(CCCC)CCc1c[nH]c2ccc(NS(=O)(=O)c3cccc4ccccc34)cc12
- melting point: 111 to 113 °C

Structure (SMILES): Cl.N#Cc1ccc(NC(=O)CN2CCC(N3C(=O)OCc4ccccc43)CC2)cc1
- melting point: 268 to 282 °C

Structure (SMILES): COc1ccc(S(=O)(=O)Nc2ccc3c(ccn3CCN(C)C)c2)cc1 [Example 23e, N-[1-(2-dimethylaminoethyl)-1H-indole-5-yl]-4-methoxybenzenesulfonamide]
- melting point: 141 to 144 °C

Structure (SMILES): O=S(=O)(Nc1ccc2[nH]cc(CCN3CCOCC3)c2c1)c1ccc2ccccc2c1
- melting point: 85 to 90 °C

Structure (SMILES): Cl.O=C1c2ccccc2-c2cc(NC(=O)C(c3ccccc3)N3CCC(N4C(=O)OCc5ccccc54)CC3)ccc21 (stereo not shown)
- melting point: 247 to 249 °C

Structure (SMILES): O=C(CN1CCC(N2C(=O)OCc3c(F)cccc32)CC1)Nc1ccc2[nH]c3ccccc3c2c1
- melting point: 195 °C

Structure (SMILES): CC(=O)c1ccc(S(=O)(=O)Nc2ccc3c(ccn3CCN(C)C)c2)cc1 [Example 21e, N-[1-(2-dimethylaminoethyl)-1H-indole-5-yl]-4-acetylbenzenesulfonamide]
- melting point: 175 °C (dec.)

Structure (SMILES): CN1CCC(c2c[nH]c3ccc(NS(=O)(=O)c4ccc(Cl)s4)cc23)CC1 [Example 14c, N-[3-(1-methylpiperidin-4-yl)-1H-indol-5-yl]-5-chlorothiophene-2-sulphonamide]
- melting point: 284 °C (dec.)

Structure (SMILES): O=S(=O)(Nc1cccc2ccn(CCN3CCCC3)c12)c1cccc2ccccc12 [Example 6g, N-(1-(2-(pyrrolidin-1-yl)ethyl)-1H-indol-7-yl)naphthalene-1-sulfonamide]
- melting point: 196 to 199 °C

Structure (SMILES): Cl.O=C(CN1CCC(N2C(=O)OCc3cc(Cl)ccc32)CC1)Nc1ccc(C2CCCCC2)cc1
- melting point: 249 to 256 °C

Structure (SMILES): CN(C)CCn1ccc2c(NS(=O)(=O)c3c(Cl)nc4sccn34)cccc21 [Example 8d, 6-chloro-N-[1-(2-dimethylaminoethyl)-1H-indol-4-yl]-imidazo[2,1-b]thiazole-5-sulfonamide]
- melting point: 95 to 100 °C

Structure (SMILES): CCN(CC)CCc1c[nH]c2ccc(NS(=O)(=O)c3cccc4ccccc34)cc12.Cl [Example 3c, Hydrochloride N-[3-(2-diethylaminoethyl)-1H-indol-5-yl]naphthalene-1-sulphonamide]
- melting point: 255 to 257 °C

Structure (SMILES): CN1CC=C(c2cn(S(=O)(=O)C3CCCCC3)c3ccc(Cl)cc23)CC1 [Example 2h, 5-Chloro-1-cyclohexanesulfonyl-3-(1-methyl-1,2,3,6-tetrahydropyridine-4-yl)-1H-indole]
- melting point: 88 to 90 °C

Structure (SMILES): CN(C)CCc1c[nH]c2ccc(NS(=O)(=O)c3ccc(-c4ccccc4)cc3)cc12
- melting point: 184 to 186 °C

Structure (SMILES): CCCN(CCC)CCc1c[nH]c2ccc(NS(=O)(=O)c3ccc4ccccc4c3)cc12
- melting point: 58 to 64 °C (dec.)

Structure (SMILES): Cl.O=C(CN1CCC(N2C(=O)OCc3cc(Cl)ccc32)CC1)Nc1ccc2c(c1)C(=O)c1ccccc1-2
- melting point: > 300 °C (dec.)

Structure (SMILES): O=S(=O)(CCc1cccc2ccccc12)Nc1cccc2ccn(CCN3CCCC3)c12 [Example 8g, 2-(naphth-1-yl)-N-(1-(2-(pyrrolidin-1-yl)ethyl)-1H-indol-7-yl)ethansulfonamide]
- melting point: 46 to 49 °C

Structure (SMILES): CCN(CC)CCc1c[nH]c2ccc(NS(=O)(=O)c3sc4ccc(Cl)cc4c3C)cc12 [24e]
- melting point: 53 to 56 °C

Structure (SMILES): CN(C)CCn1ccc2cc(NS(=O)(=O)c3ccc(F)cc3)ccc21 [Example 26e, N-[1-(2-dimethylaminoethyl)-1H-indole-5-yl]-4-fluorobenzenesulfonamide]
- melting point: 138 to 140 °C

Structure (SMILES): CCCN(CCC)CCc1c[nH]c2ccc(NS(=O)(=O)c3cccc4ccccc34)cc12
- melting point: 76 to 80 °C

Structure (SMILES): CN(C)CCc1c[nH]c2ccc(NS(=O)(=O)c3cccc4ccccc34)cc12 [Example 8c, N-[3-(2-dimethylaminoethyl)-1H-indol-5-yl]naphthalene-1-sulphonamide]
- melting point: 203 to 205 °C

Structure (SMILES): Cl.O=C(CN1CCC(N2C(=O)OCc3cc(Cl)ccc32)CC1)Nc1ccc(C(F)(F)F)cc1
- melting point: 284 to 285 °C

Structure (SMILES): CCN(c1ccccc1)c1ccc(NC(=O)CN2CCC(N3C(=O)OCc4ccc(C)cc43)CC2)cc1
- melting point: 199 °C

Structure (SMILES): Cl.O=C(CN1CCC(N2C(=O)OCc3cc(Cl)ccc32)CC1)Nc1ccc(C(=O)c2ccccc2)cc1
- melting point: 256 to 259 °C

Structure (SMILES): CCCCN(CCCC)CCc1c[nH]c2ccc(NS(=O)(=O)c3sc4ccc(Cl)cc4c3C)cc12
- melting point: 79 to 80 °C

Structure (SMILES): Cl.O=C(CN1CCC(N2C(=O)OCc3ccccc32)CC1)Nc1ccc(Oc2ccccc2)cc1
- melting point: 242 to 248 °C

Structure (SMILES): Cc1cccc2c1N(C1CCN(S(=O)(=O)c3cccc(Cl)c3Cl)CC1)C(=O)OC2
- melting point: 184 to 185 °C

Structure (SMILES): Cc1ccc2c(c1)COC(=O)N2C1CCN(CC(=O)Nc2ccc(Oc3ccccc3)cc2)CC1.Cl
- melting point: 234 to 237 °C

Structure (SMILES): CN(C)CCn1ccc2cc(NS(=O)(=O)c3cccc(Br)c3)ccc21 [Example 13e, N-[1-(2-dimethylaminoethyl)-1H-indole-5-yl]-3-bromobenzenesulfonamide]
- melting point: 114 to 116 °C

Structure (SMILES): O=C(CN1CCC(N2C(=O)OCc3cc(F)ccc32)CC1)Nc1ccc2c(c1)-c1ccccc1C2=O
- melting point: 237 °C

Structure (SMILES): Cl.O=C(CN1CCC(N2C(=O)OCc3cc(Cl)ccc32)CC1)Nc1ccc2c(c1)-c1ccccc1C2=O
- melting point: 245 to 249 °C

Structure (SMILES): Cl.O=C(CN1CCC(N2C(=O)OCc3ccccc32)CC1)Nc1ccc(Cl)cc1
- melting point: 272 to 276 °C

Structure (SMILES): CCN(CC)CCn1ccc2cc(NS(=O)(=O)c3cccc4ccccc34)ccc21 [Example 30e, N-(1-(2-(diethylamino)ethyl)-1H-indol-5-yl)-naphthalene-1-sulfonamide]
- melting point: 133 to 135 °C

Structure (SMILES): O=C1OCc2ccccc2N1C1CCN(S(=O)(=O)c2cccc(Cl)c2Cl)CC1
- melting point: 185 to 187 °C

Structure (SMILES): CN1CCC(c2c[nH]c3ccc(NS(=O)(=O)c4cccc5ccccc45)cc23)CC1 [Example 12c, N-[3-(1-methylpiperidin-4-yl)-1H-indol-5-yl]naphthalene-1-sulphonamide]
- melting point: 254 to 256 °C

Structure (SMILES): Cc1ccc2c(c1)COC(=O)N2C1CCN(CC(=O)Nc2ccc(C(=O)c3ccccc3)cc2)CC1.Cl
- melting point: 240 to 244 °C

Structure (SMILES): O=S(=O)(Nc1ccc2ccn(CCN3CCCC3)c2c1)c1ccc(Oc2ccccc2)cc1 [Example 15f, 4-Phenoxy-N-(1-(2-(pyrrolidin-1-yl)ethyl)-1H-indol-6-yl)-benzenesulfonamide]
- melting point: 59 to 62 °C

Structure (SMILES): CCN(CC)CCc1c[nH]c2ccc(NS(=O)(=O)c3cccc4ccccc34)cc12 (as salt: hydrochloride)
- melting point: 255 to 257 °C

Structure (SMILES): O=S(=O)(Nc1ccc2c(ccn2CCCN2CCCCC2)c1)c1cc(Cl)c(Cl)s1 [Example 51e, 4,5-dichloro-N-(1-(3-(piperidin-1-yl)propyl)-1H-indol-5-yl)thiophene-2-sulfonamide]
- melting point: 70 to 72 °C

Structure (SMILES): Cc1ccc2c(c1)COC(=O)N2C1CCN(CC(=O)Nc2ccccc2C(=O)c2ccccc2)CC1
- melting point: 167 to 170 °C

Structure (SMILES): Cc1ccc2c(c1)COC(=O)N2C1CCN(CC(=O)Nc2ccccc2)CC1
- melting point: 154 to 157 °C

Source: patent publication US20070059364A1, “Active substance combination comprising a compound with npy receptor affinity and a compound with 5-ht6 receptor affinity” (Laboratorios Del Dr. Esteve S.A., priority 2003, published 2007)
